The values below come from patent US20070254843A1, “Methods for treating bone associated diseases by the use of methionine aminopeptidase-2 inhibitors” (Praecis Pharmaceuticals Incorporated, priority 2006, published 2007).

Bounds are passed on as bounds.

One experiment addresses T1, MetAP-2 (Rattus norvegicus, UniProt P38062).
T1 construct: wbc from animals of each study group were pooled and cell lysates were prepared as previously described; from tissue; host or cells: white blood cells (wbc) of female Lewis rats, pooled per study group and lysed
Briefly: MetAP-2 pharmacodynamic assay in wbc lysates. It counts as in vivo. As to conditions: po, PG-PS arthritis rats, 1 mg/kg p.o. qod, read-out: MetAP-2 in wbc inhibited relative to vehicle-treated group. The method, then:
MetAP-2 pharmacodynamic assay. The MetAP-2 assay measures the amount of uninhibited MetAP-2 in cells or tissues which has not been derivitized by prior treatment with the MetAP-2 inhibitor (Bernier (2004) Proc. Natl. Acad. Sci. USA 101: 10768-10773 and Bernier (2005) J. Cell. Biochem. 95: 1191-1203). Briefly, wbc from animals of each study group were pooled and cell lysates were prepared as previously described (Bernier (2004) Proc. Natl. Acad. Sci. USA 101: 10768-10773 and Bernier (2005) J. Cell. Biochem. 95: 1191-1203). 10 μg to 20 μg of wbc protein was incubated with a biotinylated analog of the MetAP-2 inhibitor which covalently binds to the catalytic site of MetAP-2. The biotinylated MetAP-2-inhibitor complex was captured on a plate with immobilized streptavidin (Pierce), and detected with the MetAP-2 antibody CM33 (0.5 μg/ml), followed by horseradish peroxidase-conjugated goat anti-rabbit IgG secondary antibody. The amount of uninhibited MetAP-2 was determined by measuring the absorption at 450 nm using a Labsystems Multiskan plate spectrophotometer. Human recombinant MetAP-2 (Mediomics), pre-bound to the biotinylated MetAP-2 inhibitor, was used to generate the standard curve. The detection limit of this assay was 0.47 ng MetAP-2 protein/mg wbc protein.
Since the MetAP-2 inhibitor had the ability to inhibit multiple cell types critical for pathogenesis of the bone associated disease, RA, in vitro, it was hypothesized that the observations from the in vitro studies (Example 1) would translate into protection from disease in animals in the PG-PS model of arthritis. The progression of disease in this model follows a biphasic mode, with an early acute, predominantly neutrophil-driven phase which persists to days 6-7, followed by a chronic, T cell dependent phase (evident around day 12), which is characterized by chronic inflammation and erosive synovitis (Palombella (1998) Proc. Natl. Acad. Sci. USA 95:15671-15676). Therapeutic dosing of animals administered the MetAP-2 inhibitor orally (p.o.) at 1, 5 and 10 mg/kg, every other day (qod), or vehicle started at day 15 after the chronic destructive phase of the disease was established and terminated on day 31. […] The amount of uninhibited MetAP-2 in wbc of animals from all treatment groups was measured after conclusion of the study, using the MetAP-2 pharmacodynamic assay (Bernier (2004) Proc. Natl. Acad. Sci. USA 101: 10768-10773 and Bernier (2005) J. Cell. Biochem. 95: 1191-1203). […]

Experiment [1] has as its system PG-PS-induced arthritis. Kind of experiment: Microfocal computed tomography of hind joints in rat PG-PS arthritis model. Format: in vivo. As to conditions: PG-PS arthritis, 1 mg/kg; threshold 255. The method, then:
Microfocal computed tomography. All specimens were scanned on a Scanco Medical AG μCT 40 system. Images were obtained with an isotropic voxel resolution of 20 microns. A matrix size of 1024×1024 with 1000 projections was utilized for all scans. A total of 1836 slices were scanned for each specimen (the number of slices scanned was determined by the length of the scan needed to cover the entire ankle including the distal tibia). The scan time per specimen was approximately 2.6 hours. The images were then volume rendered using a fixed threshold (at two different thresholds: 255 and 140). The total bone volume and BMD were calculated over the same regions of all the specimens. Micro-CT was performed at Scanco USA, Incorporated.
Finally, the activity of the MetAP-2 inhibitor on the structural preservation of hind joints in rats with established disease was investigated.
The ankles including the distal tibia were scanned using a Scanco Medical AG μCT 40 system (threshold: 255), and the total bone volume and BMD were calculated over the same regions of all specimens.

For experiment [2], the system named is PG-PS-induced arthritis. Briefly: Clinical (histopathological) assessment of PG-PS arthritis, joint histology score. Format: in vivo, rat. Particulars: PG-PS arthritis, 1 mg/kg. The method, then: Clinical assessment of PG-PS arthritis. The histopathological evaluation was performed on the left and right hind joints of randomly selected animals from each study group by an independent histopathologist without knowledge of specific interventions. After completion of the study, the left and right hind ankles were removed, fixed in 10% buffered formalin, decalcified in 5% formic acid, paraffin-embedded, sectioned, and H&E stained for histological evaluation. A joint histology scoring system which grades the severity of 4 histopathological processes (cell infiltration, pannus formation, cartilage erosion, bone resorption), was used to quantify hind joint involvement in the PG-PS arthritis model (36). Dependent on the assigned score for each parameter (0=normal, 1=minimal, 2=mild, 3=moderate, 4=marked), the maximum total score per ankle is 16, and 32 per animal.
It was investigated whether the protective activity of the MetAP-2 inhibitor in this animal model of arthritis, which is characterized by aggressive synovitis, extensive pannus formation, cartilage degradation and focal bone erosion, was mediated through regression in the severity of all clinical indices tested, or whether this activity was targeting specific pathogenic processes.
A joint histology scoring system which grades the severity of 4 histopathological processes (cell infiltration, pannus formation, cartilage erosion, bone resorption) was used (O'Byrne (1991) Agents and Actions 134:239-241).

T1 sequence (P38062 whole entry): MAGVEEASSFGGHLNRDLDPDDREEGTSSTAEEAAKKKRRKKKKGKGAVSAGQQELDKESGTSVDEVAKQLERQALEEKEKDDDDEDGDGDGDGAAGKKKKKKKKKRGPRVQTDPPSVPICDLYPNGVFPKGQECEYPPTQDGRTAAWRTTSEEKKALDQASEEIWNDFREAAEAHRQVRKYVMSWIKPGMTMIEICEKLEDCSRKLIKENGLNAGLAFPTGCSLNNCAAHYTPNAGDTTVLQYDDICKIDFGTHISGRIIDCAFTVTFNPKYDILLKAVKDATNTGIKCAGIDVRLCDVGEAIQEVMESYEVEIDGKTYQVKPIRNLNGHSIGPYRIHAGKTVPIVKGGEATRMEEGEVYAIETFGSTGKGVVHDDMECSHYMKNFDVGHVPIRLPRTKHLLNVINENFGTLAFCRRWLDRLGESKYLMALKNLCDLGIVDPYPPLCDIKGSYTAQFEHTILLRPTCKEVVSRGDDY

Consider `C[C@@H]1C[C@H]2[C@@H]3CCC4=CC(=O)C=C[C@]4(C)[C@@]3(F)[C@@H](O)C[C@]2(C)[C@@]1(O)C(=O)CO` [dex, dexamethasone, reference compound], for which the inhibition at 1 mg/kg on MetAP-2 was at least 90%. In the experiment on PG-PS-induced arthritis [1], the BMD was found to be 1125 ± 2.59 mg HA/ccm and the “Bone Volume (Vox-BV)” value was found to be 240.7 ± 12.68. The Total arthritis score in the experiment with PG-PS-induced arthritis [2] is recorded as 2.35 ± 0.23^B. In addition, in the experiment on PG-PS-induced arthritis [2] (score 0-4), the “Bone Resorption score” value is listed as 0.95 ± 0.13^B, the Cartilage erosion score was 0.60 ± 0.14^B, the Cell infiltration score is recorded as 0.25 ± 0.08^A and the Pannus formation score is on record as 0.55 ± 0.08^A.
